Source: patent publication US7825126B2 (The United States of America as represented by the …, priority 2004, dated 2010)
Several values for one entry are separate records, joined by “and”; a condition that tells them apart may be missing. Equal entries are not always repeated.

Key:
[1] = target: T1, human A3 adenosine receptor (Homo sapiens, UniProt P0DMS8); experiment: Cyclic AMP accumulation assay (inhibition of forskolin-stimulated cAMP), CHO cells expressing human A3 adenosine receptor
T1 sequence (P0DMS8 1-318): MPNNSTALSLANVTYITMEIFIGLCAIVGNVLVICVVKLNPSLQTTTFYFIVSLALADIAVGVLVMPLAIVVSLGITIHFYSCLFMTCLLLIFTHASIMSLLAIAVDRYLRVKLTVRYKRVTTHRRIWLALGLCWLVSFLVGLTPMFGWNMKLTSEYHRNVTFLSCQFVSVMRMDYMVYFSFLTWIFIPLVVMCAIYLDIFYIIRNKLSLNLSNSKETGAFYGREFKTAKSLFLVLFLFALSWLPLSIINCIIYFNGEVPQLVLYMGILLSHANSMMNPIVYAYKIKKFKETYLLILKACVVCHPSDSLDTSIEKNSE
Description: (§1) The cyclic AMP accumulation assay was performed as follows. Intracellular cyclic AMP levels were measured with a competitive protein binding method. […] After centrifugation and resuspension in medium, cells were plated in 24-well plates in 1.0 ml medium. […] The reaction was terminated by removing the supernatant, and cells were lysed upon the addition of 200 μL of 0.1 M ice-cold HCl. The cell lysate was resuspended and stored at −20° C. For determination of cyclic AMP production, protein kinase A (PKA) was incubated with [^3H]cyclic AMP (2 nM) in K2HPO4/EDTA buffer (K2HPO4, 150 mM; EDTA, 10 mM), 20 μL of the cell lysate, and 30 μL 0.1 M HCl or 50 μL of cyclic AMP solution (0-16 pmol/200 μL for standard curve). Bound radioactivity was separated by rapid filtration through Whatman GF/C filters and washed once with cold buffer. Bound radioactivity was measured by liquid scintillation spectrometry.
(§2) Forskolin (10 μM) was used to stimulate cyclic AMP levels.

[2] = target: T2, human A1 adenosine receptor (Homo sapiens, UniProt P30542); experiment: Cyclic AMP accumulation assay (inhibition of forskolin-stimulated cAMP), CHO cells expressing human A1 adenosine receptor
T2 sequence (P30542 1-326): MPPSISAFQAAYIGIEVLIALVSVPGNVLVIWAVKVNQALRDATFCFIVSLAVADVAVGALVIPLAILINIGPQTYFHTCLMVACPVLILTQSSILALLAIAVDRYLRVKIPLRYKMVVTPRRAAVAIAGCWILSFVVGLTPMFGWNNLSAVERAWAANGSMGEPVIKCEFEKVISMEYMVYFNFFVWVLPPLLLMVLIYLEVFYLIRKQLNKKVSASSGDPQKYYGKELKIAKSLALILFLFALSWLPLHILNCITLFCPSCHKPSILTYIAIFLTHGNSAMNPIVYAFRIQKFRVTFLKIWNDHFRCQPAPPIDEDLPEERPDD
Description: as §1, §2

rat A1 receptors = rat A1 receptors (Rattus norvegicus, UniProt P25099); experiment: biochemical
Chain of rat A1 receptors (P25099 whole entry, the tested form may be a part): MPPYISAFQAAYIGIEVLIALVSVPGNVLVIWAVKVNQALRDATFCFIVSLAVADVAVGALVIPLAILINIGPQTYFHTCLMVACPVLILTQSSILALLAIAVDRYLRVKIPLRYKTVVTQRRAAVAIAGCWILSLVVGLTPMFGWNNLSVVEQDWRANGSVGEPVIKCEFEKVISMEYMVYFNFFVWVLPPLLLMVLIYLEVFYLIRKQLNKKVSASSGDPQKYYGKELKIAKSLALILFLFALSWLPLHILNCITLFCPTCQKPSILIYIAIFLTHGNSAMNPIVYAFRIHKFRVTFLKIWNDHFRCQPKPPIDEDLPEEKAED
Description: Striatal and forebrain tissues from Wistar rats were homogenized in ice-cold 50 mM Tris-HCl buffer, pH 7.4, using an electric homogenizer. The homogenate was centrifuged at 20,000 g for 10 min at 4° C., and the pellet was washed in fresh buffer. The final pellet was stored at −80° C. until the binding experiments. The protein concentration was measured using the Bradford assay.
Binding assays at the A1 and A2A receptors. […] Reaction was terminated by filtration with GF/B filters.
Statistical analysis Binding and functional parameters were calculated using Prism 5.0 software (GraphPAD, San Diego, Calif., USA). IC50 values obtained from competition curves were converted to Ki values using the Cheng-Prusoff equation.

intact mouse heart = experiment: Anti-ischemic cardioprotection, Langendorff-perfused mouse heart model of global ischemia/reperfusion; format: in vivo; details: 30 nM
Description: Anti-ischemic Cardioprotection. Langendorff perfusion of the mouse hearts was carried out. Mice were anesthetized with 60 mg/kg sodium pentobarbital (i.p.), and heart excised in ice-cold perfusion buffer. The aorta was cannulated and retrograde perfused in the Langendorff mode at a pressure of 55 mmHg. To assess isovolumic function, fluid-filled polyvinyl plastic film balloons were inserted into the left ventricle via the left atrium. Balloons were connected to a fluid-filled pressure transducer to measure the left ventricular developed pressure (LVDP), +dP/dt, −dP/dt, and heart rate. To induce normothermic global ischemia and reperfusion, retrograde perfusion of the aorta was stopped, and hearts were immersed in the same perfusion buffer in a water-jacketed bath maintained at 37° C. After 35-min ischemia and 30-min reperfusion, the recovery of left ventricular function was determined by quantifying the LVDP, +dP/dt, and −dP/dt. To quantify the infarct, the hearts were retrograde perfused with 1% triphenyltetrazolium chloride (TTC) in perfusion buffer for 10 minutes after 120-min reperfusion, which allowed washout of pyridine nucleotides from necrotic cells as required for TTC staining. The heart was then immersed in the same TTC buffer for another 10 minutes. The hearts were frozen, cut into six or seven 1 mm slices from apex to base, and scanned for measurement of infarct size by computer morphometry (Image-Pro Plus, version 5.0, Media Cybernetics, Inc, Silver Spring, Md.). The infarct size was quantified as the area of necrosis normalized to the total ventricular area.

[3] = n = 6, 35 global ischemia followed by reperfusion

## CNC(=O)C12CC1C(n1cnc3c(NC4CCCC4)nc(Cl)nc31)C(O)C2O (stereo not drawn) [Compound 104, (1′S,2′R,3′S,4′S,5′S) -4′-[6-(cyclopentylamino)-2-chloro-purin-9-yl]-2′,3′-dihydroxy-bicyclo[3.1.0]hexane-1′-carboxylic acid methyl amide]
[1]
  EC50: 2.8 nM
[1]; 10 μM, relative to 10 μM Cl-IB-MECA
  % Activation (hA3AR) at 10 μM: 101 ± 10%
[1]; intact transfected CHO cells
  agonist character at human A3 (concentration response curves, cAMP): full agonist
[2]
  EC50: 8.2 nM
[2]; intact transfected CHO cells
  agonist character at human A1 (concentration response curves, cAMP): full agonist
Rat A1 receptors
  Ki: 17.4 nM
Intact mouse heart
  recovery of left ventricular developed pressure, +dP/dt, −dP/dt and heart rate (in words): improved significantly
Intact mouse heart; [3]
  Recovery of +dP/dt: 21.1 ± 4.9 % of baseline prior to ischemia/reperfusion
  Recovery of HR: 93.8 ± 19.3 % of baseline prior to ischemia/reperfusion
  Recovery of LVDP: 26.0 ± 4.8 % of baseline prior to ischemia/reperfusion
  Recovery of −dP/dt: 24.6 ± 7 % of baseline prior to ischemia/reperfusion
Intact mouse heart; n = 6, area of necrosis normalized to total ventricular area
  % necrosis (infarct size, TTC staining): 15±7% and 15.0 ± 6.9%
Intact mouse heart; perfused until induction of ischemia
  anti-ischemic cardioprotective effect (in words): potent anti-ischemic cardioprotective effect
Intact mouse heart; computer morphometry after TTC staining
  infarct size (in words): significantly reduced
